Like-named read-outs stand apart in the source and are kept apart here.
Key:
Oidium lycopersici = experiment: Powdery mildew assay on detached tomato leaflets, % disease control, observed vs expected (Colby); type: in vivo
Phytophthora infestans = type: in vivo; settings: for E, Expected % disease control / O, Observed % disease control / O-E: A76 potato
[1] = tomato 980 Le/MM/Cf9-8, 0.1 ppm, Feb. 16, 2001
[2] = tomato 980 Le/MM/Cf9-8, 0.1 ppm, Feb. 17, 2001
[3] = tomato 980 Le/MM/Cf9-8, 0.1 ppm, Feb. 18, 2001
[4] = tomato 980 Le/MM/Cf9-8, 0.1 ppm, Feb. 19, 2001
[5] = tomato 980 Le/MM/Cf9-8, 0.1 ppm, Feb. 20, 2001
[6] = tomato 980 Le/MM/Cf9-44, 0.1 ppm, Feb. 16, 2001
[7] = tomato 980 Le/MM/Cf9-44, 0.1 ppm, Feb. 17, 2001
[8] = tomato 980 Le/MM/Cf9-44, 0.1 ppm, Feb. 18, 2001
[9] = tomato 980 Le/MM/Cf9-44, 0.1 ppm, Feb. 19, 2001
[10] = tomato 980 Le/MM/Cf9-44, 0.1 ppm, Feb. 20, 2001
[11] = tomato 981 Le/MM/Cf9-22, 0.1 ppm, Feb. 16, 2001
[12] = tomato 981 Le/MM/Cf9-22, 0.1 ppm, Feb. 17, 2001
[13] = tomato 981 Le/MM/Cf9-22, 0.1 ppm, Feb. 18, 2001
[14] = tomato 981 Le/MM/Cf9-22, 0.1 ppm, Feb. 19, 2001
[15] = tomato 981 Le/MM/Cf9-22, 0.1 ppm, Feb. 20, 2001
[16] = 0.03 ppm, Jan. 25, 2001, FB 2001/3001
[17] = 0.03 ppm, Jan. 26, 2001, FB 2001/3001
[18] = 0.03 ppm, Jan. 27, 2001, FB 2001/3001
[19] = 0.03 ppm, Jan. 28, 2001, FB 2001/3001
[20] = 0.03 ppm, Jan. 29, 2001, FB 2001/3001
[21] = 0.1 ppm, Jan. 25, 2001, FB 2001/3001
[22] = 0.1 ppm, Jan. 26, 2001, FB 2001/3001
[23] = 0.1 ppm, Jan. 27, 2001, FB 2001/3001
[24] = 0.1 ppm, Jan. 28, 2001, FB 2001/3001
[25] = 0.1 ppm, Jan. 29, 2001, FB 2001/3001
[26] = 0.3 ppm, Jan. 25, 2001, FB 2001/3001
[27] = 0.3 ppm, Jan. 26, 2001, FB 2001/3001
[28] = 0.3 ppm, Jan. 27, 2001, FB 2001/3001
[29] = 0.3 ppm, Jan. 28, 2001, FB 2001/3001
[30] = 0.3 ppm, Jan. 29, 2001, FB 2001/3001

## CO/C=C(/C(=O)OC)c1ccccc1Oc1cc(Oc2ccccc2C#N)ncn1 [Azoxystrobin, azoxystrobin]
Oidium lycopersici; all three transgenic tomato lines, observed vs expected disease control
  performance in combination with the transgenic line (indicative of synergy): better than expected
Oidium lycopersici; [1]
  E, expected disease control: 97.5%
  O, observed disease control: 93.01%
  O-E: −4.49
Oidium lycopersici; [2]
  E, expected disease control: 92.53%
  O, observed disease control: 89.64%
  O-E: −2.89
Oidium lycopersici; [3]
  E, expected disease control: 79.68%
  O, observed disease control: 86.84%
  O-E: 7.16
Oidium lycopersici; [4]
  E, expected disease control: 74.81%
  O, observed disease control: 87.5%
  O-E: 12.69
Oidium lycopersici; [5]
  E, expected disease control: 67.47%
  O, observed disease control: 81.11%
  O-E: 13.64
Oidium lycopersici; [6]
  E, expected disease control: 93.9%
  O, observed disease control: 100%
  O-E: 6.1
Oidium lycopersici; [7]
  E, expected disease control: 84.21%
  O, observed disease control: 97.12%
  O-E: 12.91
Oidium lycopersici; [8]
  E, expected disease control: 67.22%
  O, observed disease control: 89.72%
  O-E: 22.5
Oidium lycopersici; [9]
  E, expected disease control: 61.62%
  O, observed disease control: 86.36%
  O-E: 24.74
Oidium lycopersici; [10]
  E, expected disease control: 52.54%
  O, observed disease control: 79.57%
  O-E: 27.03
Oidium lycopersici; [11]
  E, expected disease control: 93.41%
  O, observed disease control: 96.01%
  O-E: 2.6
Oidium lycopersici; [12]
  E, expected disease control: 81.74%
  O, observed disease control: 96.55%
  O-E: 14.81
Oidium lycopersici; [13]
  E, expected disease control: 69.49%
  O, observed disease control: 89.47%
  O-E: 19.98
Oidium lycopersici; [14]
  E, expected disease control: 63.9%
  O, observed disease control: 90.91%
  O-E: 27.01
Oidium lycopersici; [15]
  E, expected disease control: 56.11%
  O, observed disease control: 87.84%
  O-E: 31.73
Phytophthora infestans; [16]
  E, Expected % disease control: 85.1%
  O, Observed % disease control: 86.1%
  O-E: 1.0
Phytophthora infestans; [17]
  E, Expected % disease control: 91.0%
  O, Observed % disease control: 91.0%
  O-E: 0.0
Phytophthora infestans; [18]
  E, Expected % disease control: 84.2%
  O, Observed % disease control: 89.6%
  O-E: 5.4
Phytophthora infestans; [19]
  E, Expected % disease control: 56.4%
  O, Observed % disease control: 84.9%
  O-E: 28.4
Phytophthora infestans; [20]
  E, Expected % disease control: 38.7%
  O, Observed % disease control: 63.8%
  O-E: 25.1
Phytophthora infestans; [21]
  E, Expected % disease control: 91.8%
  O, Observed % disease control: 91.7%
  O-E: −0.1
Phytophthora infestans; [22]
  E, Expected % disease control: 95.1%
  O, Observed % disease control: 98.6%
  O-E: −1.6
Phytophthora infestans; [23]
  E, Expected % disease control: 93.1%
  O, Observed % disease control: 91.7%
  O-E: −1.4
Phytophthora infestans; [24]
  E, Expected % disease control: 76.1%
  O, Observed % disease control: 89.9%
  O-E: 13.9
Phytophthora infestans; [25]
  E, Expected % disease control: 51.1%
  O, Observed % disease control: 86.9%
  O-E: 35.8
Phytophthora infestans; [26]
  E, Expected % disease control: 95.5%
  O, Observed % disease control: 97.2%
  O-E: 1.7
Phytophthora infestans; [27]
  E, Expected % disease control: 97.2%
  O, Observed % disease control: 98.7%
  O-E: 1.5
Phytophthora infestans; [28]
  E, Expected % disease control: 95.6%
  O, Observed % disease control: 97.9%
  O-E: 2.4
Phytophthora infestans; [29]
  E, Expected % disease control: 87.1%
  O, Observed % disease control: 98.0%
  O-E: 10.9
Phytophthora infestans; [30]
  E, Expected % disease control: 74.6%
  O, Observed % disease control: 97.0%
  O-E: 22.4
Phytophthora infestans; in combination with A76 potato, observed vs expected disease control
  performance in combination with A76 (indicative of synergy): better than expected

Source: patent US20040097596A1 (priority 2000, published 2004)
